Test results from US10676436B2, “NLRX1 ligands” (Landos Biopharma, Inc., priority 2018, dated 2020).

Key:
CD4+ T cells = experiment: Immunological screening in vitro in CD4+ splenocytes, flow cytometry; type: cell-based, C57BL/6 mice
Excerpt: Spleens were excised from C57BL/6 mice. Spleens were crushed between the frosted ends of microscope slides and filtered to provide a cellular suspension. Red blood cells were lysed through hypotonic lysis. Remaining cells were washed and filtered. CD4+ T cells were enriched within the suspension using magnetic sorting based negative selection. Cells were collected and plated within 96 well plates coated with anti-CD3 and cultured in the presence of NX-13, NX-37, NX-43, NX-44, or NX-50 at 0, 0.1, 1 or 10 micromolar; NX-53, NX-54, NX-55, or NX-56 at 0, 0.1, or 1 micromolar; or NX-45 at 10, 50 or 100 nanomolar for 48 h. During the last 6 h of culture, cells were stimulated with phorbol 12-myristate-13-acetate (PMA) and ionomycin.
Cells were collected from 96 well plates and stained with a cocktail of antibodies for immunophenotyping by flow cytometry. Culture supernatant was collected and assayed for cytokine concentrations by cytometric bead array. Data was captured on a BD FACS Celesta and analyzed using FacsDiva.

[1] = test system: peripheral blood mononuclear cells (PBMCs) of ulcerative colitis patients; experiment: Ex vivo treatment of PBMCs of ulcerative colitis patients, flow cytometry; type: cell-based, human
Procedure: Samples were obtained from male and female donors clinically categorized as having moderate to severe disease. Age and current medications were not used as exclusion criteria. Whole blood was collected into heparinized vacuum tubes. Whole blood was diluted 1:3 volumes with sterile phosphate buffered saline. LeucoSep (Greiner) were prepared by addition of Lymphocyte Separation Media followed by 15 second centrifugation at max speed. Diluted whole blood was added to LeucoSep tubes. After centrifugation (2000×g, 20 min), PBMCs were collected from the interphase by Pasteur pipette. Remaining red blood cells were lysed by hypotonic lysis and suspension was filtered through a […] cell strainer. PBMCs were washed and re-suspended in sterile cell culture media, RPMI containing 10% fetal bovine serum, 2.5% Hepes solution, 1% L-glutamine, 1% penicillin/streptomycin, 1% sodium pyruvate, and 1% essential amino acids (complete RPMI).
Target cells were incubated for 24 h in complete RPMI culture media at 37° C. Cells were incubated in the presence of NX-13 ranging in concentration from 1 nM to 100 nM. NX-13 stock solution was prepared at 100 mM in dimethyl sulfoxide (DMSO) and diluted to desired concentration in culture media. DMSO concentrations were adjusted to be equal across all doses and vehicle treatments. Six hours prior to assay, cells were stimulated with phorbol 12-myristate 13-acetate (PMA) and ionomycin to stimulate cellular activation. Cells were assayed for desired data at 24 h.
Prior to collection, cells were incubated BD GolgiStop (2 μL GolgiStop to 3 mL of total media) to allow intracellular accumulation of cytokines. Cells were live stained with extracellular (CD45, CD3, CD4, CD8, CD11b) and intracellular (FOXP3, IL-10, IL-4, IFNγ, TNFα) in a sequential manner. Data was acquired on a BD FACs Celesta and analyzed using FACSDiva. Non-viable and non-singlet cells were excluded from analysis. Data is presented as percentage of CD45+ cells or % viable, singlets.

[2] = test system: MDR1a−/− model of colitis; experiment: MDR1a−/− model of colitis (chronic model of IBD); type: in vivo, mice
Procedure: MDR1a−/− model. Mice deficient in MDR1a spontaneously develop colitis. MDR1a−/− began receiving NX-13 treatment (oral, 20 mg/kg) at 4 weeks of age and continued treatment until 10 weeks of age. Mice were weighed and scored weekly. NX-13 was prepared within a 0.5% methylcellulose (12-15 cP) solution. Dosage used was 20 mg/kg delivered once daily. Mice were weighed on a weekly basis to update dosage formulation. Dosage was calculated based off mean body weights for each gender. Oral dosage was delivered by orogastric gavage of dosage in 0.2 mL volume. Colons were collected into RPMI/FBS buffer containing collagenase (300 U/mL) and DNase (50 U/mL) for digestion. Tissues were digested for 60 minutes under stirring at 37° C. Resultant cellular suspensions were filtered through 100 μm strainers, centrifuged (300× g, 8 min), and washed in fresh RPMI. Following filtration of the resulting single cell suspensions, immune cells were purified by Percoll gradient of cell-containing 40% Percoll overlayed onto 70% Percoll solution. After centrifugation, interphase was collected and washed to obtain enriched colonic lamina propria cell fractions. Cells were labeled with mixtures of extracellular (CD45, CD3, CD4, CD8, CD19, NK1.1, CD25, F4/80, CD11b, Gr1, CX3CR1, CD64) and intracellular (Tbet, RORγT, FOXP3, IFNγ, IL17, IL10) antibodies in a sequential live staining in 96-well plates. Data was acquired using a FACS Celesta flow cytometer with FACSDiva software. H&E stained colonic sections were prepared from portions of colons collected into 10% buffered formalin and embedded in paraffin. Slides were examined by a board-certified veterinary pathologist via an Olympus microscope and images were collected with Image-Pro software. Samples were scored (0-4) for leukocytic infiltration, epithelial erosion and mucosal thickening.

[3] = wild-type cells, 48 h, PMA and ionomycin
[4] = ulcerative colitis samples, 1 nM
[5] = ulcerative colitis samples, 1 to 100 nM, 24 h
[6] = six weeks of treatment, flow cytometry

For `Cc1cccc(Oc2cc(Oc3cccc(C)n3)cc(Oc3cccc(C)n3)c2)n1` [NX-13, 1,3,5-tris (6-methylpyridin-2-yloxy) benzene], which “function at NLRX1 concluded from the cytokine results” value (CD4+ T cells) is on record?
Its value is “activators of NLRX1”.

What about the “effects on IFNγ and TNFα producing CD4+ T cells in the absence of NLRX1” value (CD4+ T cells; NLRX1 deficient cells) of the same molecule?
The value was “these effects were lost”.

What about the “proportion of IFNγ producing (IFNγ+) CD4+ T cells” value (CD4+ T cells; [3]) of the same molecule?
The value was “reduced”.

And the “proportion of TNFα producing (TNFα+) CD4+ T cells” value (CD4+ T cells; [3])?
Its value is “reduced”.

And the “amount of TNFα present in each cell (mean fluorescent intensity)” value ([1]; in a dose dependent manner)?
The value was “reduced”.

What about the “concentrations with significant reductions of IFNγ producing cells” value ([1]; ulcerative colitis samples) of the same molecule?
Its value is at least 10 nM.

And the “concentrations with significant reductions of TNFα producing cells” value ([1]; ulcerative colitis samples)?
The value was at least 10 nM.

What about the “IFNγ producing cells at 1 nM” value [1, 4] of the same molecule?
Its value is “significant decrease”.

And the “TNF producing cells at 1 nM” value [1, 4]?
The value was “significant reductions were not observed”.

What about the “percentage of IFNγ producing CD4+ T cells” value [1, 5] of the same molecule?
The value was “decreased”.

And the “percentage of TNFα producing CD4+ T cells” value [1, 5]?
Its value is “decreased”.

And the “development of leukocyte aggregates and thickening of the mucosa” value ([2]; after six weeks of treatment)?
Its value is “protected against”.

What about the “overall leukocytic infiltration and epithelial erosion” value ([2]; after six weeks of treatment) of the same molecule?
Its value is “reduced”.

What about the “maximal observed reduction of disease activity” value ([2]; oral 20 mg/kg once daily, week six of treatment) of the same molecule?
Its value is 70%.

And the colonic pathology ([2]; oral, six weeks of treatment, H&E)?
Its colonic pathology is “greatly reduced”.

And the “numbers of F4/80hi macrophages” value [2, 6]?
Its value is “greatly reduced”.

What about the “numbers of IL-17 and IFNγ producing T cells” value [2, 6] of the same molecule?
Its value is “greatly reduced”.

What about the “proportions of Th1 cells in the colonic lamina propria” value [2, 6] of the same molecule?
Its value is “reduces”.

And the “proportions of neutrophils in the colonic lamina propria” value [2, 6]?
The value was “reduces”.

And the “proportions of regulatory CD4+ T (Treg) cells in the colon” value [2, 6]?
Its value is “increased”.
